In patent publication US11166924B2, “N-methyl-d-aspartate receptor allosteric modulators and methods for their use” (Qingdao Primedicine Pharmaceutical Company, Ltd., priority 2016, dated 2021):

What was measured:
hippocampal slices (LTP) = assay: Long-term potentiation (LTP) in hippocampal slices; conditions: mouse hippocampal slices; FIG. 19
Source text: (§1) 6-8 week old C57/Bl6 mice or rats underwent cervical dislocation followed by decapitation. The brain was immediately transferred to an ice cold NMDG-based cutting solution consisting of: (in mM): 120 NMDG, 2.5 KCl, 1.2 NaH2PO4, 25 NaHCO3, 1.0 CaCl2, 7.0 MgCl2, 2.4 Na-pyruvate, 1.3 Na-ascorbate, 20 D-glucose with pH adjusted to 7.35 using HCl acid (unless stated, all chemicals and drugs were purchased from Sigma or BioShop, Canada). The hippocampus was dissected out and transverse hippocampal slices (400 μm) were obtained using a manual tissue chopper (Stoelting, Wood Dale, Ill., USA). Slices recovered in a heated (30° C.) incubating chamber for 1 hr which contained ACSF composed of (in mM): 124 NaCl, 3 KCl, 1.25 NaH2PO4, 1 MgSO47H2O, 2 CaCl2), 26 NaHCO3 and 15 D-glucose which was bubbled continuously with carbogen (95% O2/5% CO2) (pH to 7.3). After 30 additional minutes at room temperature, slices were transferred to a submerged recording chamber and were perfused continuously with carbogenated ACSF (2-3 ml/min). Whole-cell recordings of CA1 pyramidal neurons were performed using the “blind” method with a MultiClamp 700B amplifier. EPSCs (excitatory post synaptic currents) were elicited by stimulating the SC pathway. For isolation of NMDAR currents, cells were voltage clamped at +40 mV. […]

pCREB = pCREB levels in hippocampal and cortical tissue after i.v. injection; assay type: in vivo, rat; conditions: 1 mg/kg i.v., 1 h post-treatment
Procedure: Brain tissues or cultured cells were lysed on ice in the lysis buffer and then the solution was centrifuged at 14,000 rpm for 10 min at 4° C. Next, the supernatant was collected and protein concentrations were determined using a BCA protein assay kit (Thermo Scientific, 23227). Equal amount of protein samples were mixed with 4 times sample buffer, boiled at 100° C. for 5 min, and separated on 10% sodium dodecyl sulphate-polyacrylamide gel electrophoresis (SDS-PAGE). Proteins were then transferred to Immobilon-PTM polyvynilidene fluoride (PVDF) membranes (Bio-Rad, 162-0177). The membranes were blocked with 5% non-fat milk in Tris-buffered saline containing 0.1% Tween-20 (TBST) for 1 hour at room temperature, and then incubated overnight at 4° C. with primary antibody. After washing 3×5 min in TBST, protein was visualized in the Bio-Rad Imager using ECL Western blotting substrate (Pierce, 32016). For the detection of phospho-CREB, samples prepared in the same day were used. The polyvinylidene difluoride membrane (Millipore, Bedford, Mass., USA) was incubated with primary antibody against phospho-CREB (Ser133) (Cell Signaling Technology, Beverly, Mass.). […] The band density of each protein was quantified by the Bio-Rad Quantity One software and the relative optical density was analyzed relative to loading total-CREB on the same membrane. […]

[1] = target: T1, GluN2A component of NMDAR currents in hippocampal slices (Mus musculus, UniProt P35436+P35438); assay: Slice recordings, GluN2A component of synaptic NMDAR currents; conditions: FIG. 18
T1 construct: from tissue; host or cells: mouse hippocampal slices, CA1 pyramidal neurons
Source text: as §1

GluN1/GluN2A^F115Y = target: T2, GluN1/GluN2A^F115Y (Rattus norvegicus, UniProt P35439+Q00959, F115Y); assay: Patch clamp in HEK293 cells expressing mutant GluN1/GluN2A F115Y; assay type: cell-based
T2 construct: expressed in transfected cells; host or cells: HEK293
Procedure: Whole cell patch-clamp recordings were performed under voltage-clamp mode using an Axopatch 200B or 1D patch-clamp amplifier (Molecular Devices). Whole-cell currents were recorded at a holding potential of −60 mV unless indicated elsewhere, and signals were filtered at 2 kHz, digitized at 10 kHz (Digidata 1322A). Recording pipettes (3-5 MΩ) were filled with intracellular solution containing (mM): CsCl 140, HEPES 10, Mg-ATP 4, QX-314 5, pH 7.20; osmolarity, 290-295 mOsm. BAPTA (10 mM) was added in the intracellular solution (unless otherwise specified). The coverslips were continuously superfused with extracellular solution containing (mM): NaCl 140, KCl 5.4, HEPES 10, CaCl2 1.3, glucose 20, pH 7.4; osmolarity, 305-315 mOsm. NMDA-induced currents were applied by NMDA through perfusion fast-step (Warner Instruments). With perfusion fast-step system, NMDA application was achieved by using a two-square barrel glass tubing and depending on the age of the cultured neurons, CNQX (10 μM), TTX (0.5 μM) or BIC (10 μM) were added in the extracellular solution to minimize the activation of ionotropic glutamate receptors and voltage-gated sodium channels, respectively. All experiments were performed at room temperature. Recordings from at least six HEK293 cells/neurons were performed for all active compounds. […]

T2 sequence (Q00959 23-1464 F115Y, other chains not shown): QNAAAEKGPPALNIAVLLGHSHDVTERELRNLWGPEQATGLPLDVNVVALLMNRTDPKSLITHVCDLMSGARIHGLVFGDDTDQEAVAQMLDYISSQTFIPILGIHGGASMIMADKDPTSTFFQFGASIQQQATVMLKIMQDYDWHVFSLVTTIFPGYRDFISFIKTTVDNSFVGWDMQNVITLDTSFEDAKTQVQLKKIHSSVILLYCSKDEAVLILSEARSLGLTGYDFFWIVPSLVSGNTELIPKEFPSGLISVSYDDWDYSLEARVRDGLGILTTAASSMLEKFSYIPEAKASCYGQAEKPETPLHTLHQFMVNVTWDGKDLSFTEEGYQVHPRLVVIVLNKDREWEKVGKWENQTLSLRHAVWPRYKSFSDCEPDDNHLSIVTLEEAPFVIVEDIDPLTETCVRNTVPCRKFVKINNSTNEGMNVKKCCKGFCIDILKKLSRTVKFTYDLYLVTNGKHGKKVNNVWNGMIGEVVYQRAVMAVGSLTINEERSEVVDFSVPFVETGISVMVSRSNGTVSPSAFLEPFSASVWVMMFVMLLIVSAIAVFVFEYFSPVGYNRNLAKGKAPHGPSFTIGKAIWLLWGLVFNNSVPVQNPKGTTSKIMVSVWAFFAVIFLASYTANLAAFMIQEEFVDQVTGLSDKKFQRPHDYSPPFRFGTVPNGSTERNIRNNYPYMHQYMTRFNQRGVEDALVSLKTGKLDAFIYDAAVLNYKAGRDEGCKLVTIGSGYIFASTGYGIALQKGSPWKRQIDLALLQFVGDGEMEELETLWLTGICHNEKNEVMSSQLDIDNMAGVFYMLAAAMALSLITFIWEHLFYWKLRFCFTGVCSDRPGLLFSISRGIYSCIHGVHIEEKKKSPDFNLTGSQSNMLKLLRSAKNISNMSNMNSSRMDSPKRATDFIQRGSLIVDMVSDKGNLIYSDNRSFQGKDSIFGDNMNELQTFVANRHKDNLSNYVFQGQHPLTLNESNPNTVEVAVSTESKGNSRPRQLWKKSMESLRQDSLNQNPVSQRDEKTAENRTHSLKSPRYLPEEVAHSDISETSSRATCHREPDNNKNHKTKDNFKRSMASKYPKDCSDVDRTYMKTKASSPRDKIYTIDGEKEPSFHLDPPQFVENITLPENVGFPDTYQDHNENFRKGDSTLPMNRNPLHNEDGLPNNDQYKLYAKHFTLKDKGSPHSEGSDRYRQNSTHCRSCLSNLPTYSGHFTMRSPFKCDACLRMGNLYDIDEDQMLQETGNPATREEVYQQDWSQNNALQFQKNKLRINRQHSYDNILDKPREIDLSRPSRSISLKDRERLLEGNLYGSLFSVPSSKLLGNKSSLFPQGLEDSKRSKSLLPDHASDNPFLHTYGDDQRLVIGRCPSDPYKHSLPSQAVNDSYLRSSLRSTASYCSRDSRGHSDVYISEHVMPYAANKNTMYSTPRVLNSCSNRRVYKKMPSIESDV
T1 sequence (P35436 23-1464, other chains not shown): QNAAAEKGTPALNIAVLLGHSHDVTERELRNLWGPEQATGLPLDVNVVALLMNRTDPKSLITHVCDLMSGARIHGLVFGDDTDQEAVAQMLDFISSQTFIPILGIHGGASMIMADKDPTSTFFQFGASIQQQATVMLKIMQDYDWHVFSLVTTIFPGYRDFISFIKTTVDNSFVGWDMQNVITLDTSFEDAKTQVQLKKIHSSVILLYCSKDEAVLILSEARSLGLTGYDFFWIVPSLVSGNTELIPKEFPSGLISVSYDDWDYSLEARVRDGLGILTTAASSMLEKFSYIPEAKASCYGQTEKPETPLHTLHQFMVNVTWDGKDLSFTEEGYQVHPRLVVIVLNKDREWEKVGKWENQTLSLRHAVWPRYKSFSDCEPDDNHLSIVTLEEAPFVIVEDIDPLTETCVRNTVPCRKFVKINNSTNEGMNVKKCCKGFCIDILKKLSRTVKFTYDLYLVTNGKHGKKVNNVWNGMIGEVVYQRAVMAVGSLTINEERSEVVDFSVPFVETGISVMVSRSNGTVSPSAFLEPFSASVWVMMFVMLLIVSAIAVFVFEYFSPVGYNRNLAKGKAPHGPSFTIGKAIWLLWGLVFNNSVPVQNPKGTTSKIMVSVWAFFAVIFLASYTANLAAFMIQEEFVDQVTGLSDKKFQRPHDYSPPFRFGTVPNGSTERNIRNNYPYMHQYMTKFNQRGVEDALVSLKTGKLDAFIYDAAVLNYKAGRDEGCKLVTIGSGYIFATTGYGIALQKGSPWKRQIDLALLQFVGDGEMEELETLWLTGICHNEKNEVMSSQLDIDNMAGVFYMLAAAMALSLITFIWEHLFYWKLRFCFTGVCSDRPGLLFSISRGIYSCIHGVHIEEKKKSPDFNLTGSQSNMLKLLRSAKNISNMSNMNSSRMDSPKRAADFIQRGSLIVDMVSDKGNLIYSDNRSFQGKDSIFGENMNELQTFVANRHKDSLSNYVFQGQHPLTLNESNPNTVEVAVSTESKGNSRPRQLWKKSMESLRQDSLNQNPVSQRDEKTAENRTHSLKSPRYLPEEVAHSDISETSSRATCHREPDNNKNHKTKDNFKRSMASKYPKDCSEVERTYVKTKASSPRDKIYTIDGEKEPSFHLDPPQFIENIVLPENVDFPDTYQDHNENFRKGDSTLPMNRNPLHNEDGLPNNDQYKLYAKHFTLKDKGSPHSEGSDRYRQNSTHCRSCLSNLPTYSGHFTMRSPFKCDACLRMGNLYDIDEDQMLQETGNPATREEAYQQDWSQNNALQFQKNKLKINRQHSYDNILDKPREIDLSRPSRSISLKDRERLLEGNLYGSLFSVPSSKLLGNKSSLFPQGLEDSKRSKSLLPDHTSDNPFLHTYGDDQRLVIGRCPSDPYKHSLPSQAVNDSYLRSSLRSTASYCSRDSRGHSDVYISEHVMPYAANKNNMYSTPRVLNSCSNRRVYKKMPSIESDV

SMILES: CCOc1cc(Cl)c(Cl)c(/C=N/NC(=O)c2ccccc2Br)c1O [Npam43, (E)-2-bromo-N′-(2,3-dichloro-5-ethoxy-6-hydroxybenzylidene)benzohydrazide]
- Induction of LTP (hippocampal slices (LTP)): can facilitate the induction of LTP
- pCREB levels in hippocampal and cortical tissue (pCREB): elevated
- Effect on GluN2A component of NMDAR currents [1]: selectively potentiated the GluN2A component of NMDAR currents
- Relative potentiation (GluN1/GluN2A^F115Y; Table 3): 100 ± 4.2%
- Net Difference potentiation (GluN1/GluN2A^F115Y; normalized to wild-type): −52.2 ± 0.52%
